Laboratory results: US9809563B2 (GIFU University, priority 2014, dated 2017)
Structures can show the parent of a compound that is named as a salt. Where two headings read alike, the source gives them in different places.

What was measured:
[1] = rat, in vivo
[2] = male, Crl:CD (SD), rat, in vivo, po, 1 mg/kg

Compound: O=C(CN1CCCC1)Nc1ccc(C(c2ccc(NC(=O)CN3CCCC3)cc2)C2CCCCC2)cc1 [maleic acid salt, N,N′-[(cyclohexylmethylene)di-4,1-phenylene]bis[2-(1-pyrrolidinyl)acetamide] maleate]
- Concentrations of radioactivity in the cerebrum and cerebellum compared with blood [1]: higher than those in the blood
- Radioactivity in tissues relative to plasma [1]: 100 fold
- Blood concentration of radioactivity/plasma concentration of radioactivity (RB) ([1]; iv, 1 mg/kg): 10.18
- Distribution to blood cells (T) ([1]; iv, 1 mg/kg): 93.7%
- Radioactivity concentration Blood (Cb) ([1]; iv, 1 mg/kg): 39.7 ng eq./mL
- Radioactivity concentration Plasma (Cp) ([1]; iv, 1 mg/kg): 3.9 ng eq./mL
- Blood concentration of radioactivity/plasma concentration of radioactivity (RB) ([1]; iv, 10 mg/kg): 19.52
- Distribution to blood cells (T) ([1]; iv, 10 mg/kg): 96.5%
- Radioactivity concentration Blood (Cb) ([1]; iv, 10 mg/kg): 407.9 ng eq./mL
- Radioactivity concentration Plasma (Cp) ([1]; iv, 10 mg/kg): 20.9 ng eq./mL
- Blood concentration of radioactivity/plasma concentration of radioactivity (RB) ([1]; po, 1 mg/kg): 4.55
- Distribution to blood cells (T) ([1]; po, 1 mg/kg): 86.0%
- Radioactivity concentration Blood (Cb) ([1]; po, 1 mg/kg): 10.0 ng eq./mL
- Radioactivity concentration Plasma (Cp) ([1]; po, 1 mg/kg): 2.2 ng eq./mL
- tmax Time required to reach maximum radioactivity concentration [2]: 4.0 h
